Data on two molecules can be found in patent US20260138969A1 (Korea Research Institute of Chemical Technology, priority 2023, published 2026).

What all share (format): in vivo
For data set [1], the system named is Reserpine-induced fibromyalgia rat model. The experiment in a line: Reserpine-induced fibromyalgia rat model: pain (von Frey test). As for the experimental part: Reserpine-induced fibromyalgia model generation and drug administration were carried out on 6-week-old male SD rats divided into 6 groups as shown in Table 15 below: control group (G1), reserpine+delivery (G2), reserpine+gabapentin 50 mg/kg (G3), reserpine+Example 2 3 mg/kg (G4), 10 mg/kg (G5), and 30 mg/kg (G6). To create a rat fibromyalgia model, reserpine (Sigma-aldrich, 1 mg/kg) dissolved in 0.5% acetic acid was administered subcutaneously once for 3 days from 3 days before the start of the experiment. Beginning on Day 1, the once-daily (QD) delivery body, gabapentin, and embodiment 2 were administered intraperitoneally (IP) or orally (PO) 2 hours before the experiment was performed.
The right hind foot tactile response test (von Frey test) was performed 5 times (before the fibromyalgia model, and on the 1st, 2nd, 4th and 6th days after the model was generated). Before all behavioral tests, rats were accustomed to the environment for 30 minutes, and all experimenters performing behavioral tests were made blind to drug administration information. Before model generation, baseline measurements were performed by performing the von Frey test on all rats. The rat was placed on a wired mesh and placed in a transparent plastic box (20×20×14 cm), and the foot withdrawal threshold was measured by applying a von Frey filament (ascending weight: 0.4, 0.6, 1.4, 2, 4, 6, 8, and 15 g, North Coast) to the middle of the right hind foot to assess foot allodynia.

For data set [2], the system named is MPTP-induced PD mouse model. The experiment in a line: MPTP-induced PD mouse model: dopamine by LC-MS/MS. The settings on record: vs MPTP alone group. As for the experimental part:
Mice at 7 weeks of age were divided into 7 groups as shown in Table 9 below to generate an acute MPTP model and proceed with drug administration: control group+vehicle (G1), MPTP+vehicle (G2), MPTP+Nilotinib 40 mg/kg (G3), MPTP+Example 3 2 mg/kg (G4), MPTP+Example 3 10 mg/kg (G5), MPTP+Example 3 50 mg/kg (G6), and MPTP+Example 2 50 mg/kg (G7). The test drug was administered orally (PO) at 10 ml/kg once daily (QD) from Day 1 to Day 7. The acute MPTP model will be performed at 2-hour intervals in all groups except the control group. […] was administered as intraperitoneal (IP) injection for 4 doses. The control group was given the same amount of 0.9% saline. The Pole test was performed on day 4 (after training on day 2 and day 3). On day 7, all mice were euthanized, and their brains were harvested.
The amount of dopamine was measured by LC-MS/MS analysis using Agilent 1290 (LC) and SCIEX QTARP 6500+ (QQQ) for the striatum and substantia nigra of the extracted brain tissue.

Data set [3] in a line: Distribution in the mouse brain (plasma and brain AUC). As for the experimental part: The blood-brain barrier permeability in ICR mice was confirmed by oral administration of 10 mg/kg of test material. Male […] mice were fasted for 15 h prior to administration. The test material was administered at a dose of 10 mg/kg and a volume of 5 mL/kg, and the solvent composition was N-Methyl-2-pyrrolidone (NMP), Polyethylene glycol 400 (PEG 400), and distilled water (D.W) at a volume ratio of 10:40:50(%), respectively. After administration, blood and brain tissue samples were taken by sacrificing mice with carbon dioxide inhalation at each time point corresponding to 1, 4, and 8 hours. Whole blood was collected from the abdominal vena cava, and brain samples were collected after systemic perfusion with saline to remove as much blood as possible.
The distribution ratio in mouse plasma and brain was calculated by calculating the AUC after concentration quantification in each tissue.

Data set [4] relates to SOD1 G93A transgenic ALS mouse model. The experiment in a line: SOD1 G93A transgenic ALS mouse model: grip strength. The settings on record: 30 mg/kg PO QD from 8 weeks of age; vs G2. As for the experimental part: (§1) The test drug was administered once daily (QD) via oral administration (PO) in a solution of 5 mL/kg from 8 weeks of age until death. Body weight was measured weekly, and disease score was measured daily from 8 weeks until the death of the animal. Motor behavior tests (grip strength) and neurological score tests (modified Irwin test) were performed at 9, 11, 13, 15, 17, 19, and 21 weeks, respectively. The survival of the mice was monitored daily.
Grip strength measurements were performed on mice aged 9, 11, 13, 15, 17, 19, and 21 weeks of age. The mouse was placed on a grip strength measurement device (San Diego Instruments, San Diego, USA) in such a way that the mouse grabbed the handle of a small mesh with its front paws. I put the mouse down on the platform and then slowly pulled the handle […] until the mouse released the handle. The device automatically measured the grip strength of the mouse in grams. Five scores per mouse were recorded consecutively in a one-day session.

The test system is the same in data set [5]. The data set is described as follows: SOD1 G93A transgenic ALS mouse model: disease symptom score (ALSTDI). The settings on record: 30 mg/kg PO QD from 8 weeks of age; vs G2. As for the experimental part: as §1
From 8 weeks of age, the neurological scoring system developed by the ALS Therapy Development Institute (ALSTDI) method was used to evaluate disease symptoms in mice. Both hind legs were scored based on Table 14 below.

For data set [6] the test system is unchanged. The experiment in a line: SOD1 G93A transgenic ALS mouse model: survival. The settings on record: 30 mg/kg PO QD from 8 weeks of age until death; vs G2. As for the experimental part: as §1
The survival of the mice was monitored daily. The survival age of mice was recorded and labeled as Kaplan Meier survival plots.

For data set [7] the test system is unchanged. The data set is described as follows: SOD1 G93A transgenic ALS mouse model: neurological score. The settings on record: 30 mg/kg PO QD; from the 19th week of age onwards; vs G2. As for the experimental part: as §1
The mark [8] stands for this setting: oral 10 mg/kg, samples at 1, 4, 8 hours.

As for `Cc1cc(F)c(C(=O)Nc2cccc(-n3nnc4c3CCC4)n2)cc1-n1cnc(C2CC2)c1` [Example 2, 5-(4-cyclopropyl-1H-imidazole-1-yl)-N-(6-(5,6-dihydrocyclopenta[d][1,2,3]triazole-1 (4H)-yl)pyridine-2-yl)-2-fluoro-4-methylbenzamide], the “pain improvement efficacy (von Frey test)” value in data set [1] (30 mg/kg PO QD) is on record as “significant efficacy”. For the same molecule, the “sensitivity (foot withdrawal threshold, von Frey test)” value in data set [1] (gabapentin 50 mg/kg IP QD, Example 2 3, 10, 30 mg/kg PO QD, days 1, 2, 4, 6) is listed as “gradually improved over time”. Besides, in data set [2] (50 mg/kg PO QD), the “dopamine concentration in the striatum” value is “significantly increased” and the “dopamine concentration in the substantia nigra” value is on record as “significantly increased”.
`Cc1cc(F)c(C(=O)Nc2cccc(-n3nnc4c3CCCC4)n2)cc1-n1cnc(C2CC2)c1` [Example 3, 5-(4-cyclopropyl-1H-imidazole-1-yl)-2-fluoro-4-methyl-N-(6-(4,5,6,7-tetrahydro-1H-benzo[d][1,2,3]triazole-1-yl)pyridine-2-yl)benzamide]: the Kp in data set [3] (male, brain/plasma, po, 10 mg/kg) was determined as 0.021. In data set [3] (setting [8]), this molecule displayed an Aukinf brain of 6.61 ± 1.75 ug*h · g and an Aukinf plasma of 320 ± 74.8 µg·mL·h. In data set [4], the grip strength result is “tended to increase grip strength compared to group G2, and the grip strength increased significantly from 19 weeks”. The “dopamine concentration in the substantia nigra” value in data set [2] (2 mg/kg PO QD) is “significantly increased”. In addition, in data set [2] (10 mg/kg PO QD), the “dopamine concentration in the substantia nigra” value is “significantly increased”. Further, the disease symptom score entry in data set [5] is “tended to have a lower disease symptom score compared to G2 during the observation period, and decreased significantly at 20 weeks”. Also, the survival rate result in data set [6] is “tendency to improve survival rate, although it was not significant compared to group G2”. In addition, in data set [7], the neurological scores entry was “significant decrease in neurological scores compared to G2”.

In general, Kp refers to tissue or fluid exposure divided by exposure in the circulation.
